Results taken from EP4603105A1, “PHARMACEUTICAL COMPOSITION CONTAINING CYCLIC COMPOUND HAVING SELECTIVE KRAS INHIBITORY EFFECT AGAINST HRAS AND NRAS” (CHUGAI SEIYAKU KABUSHIKI KAISHA, priority 2022, dated 2024).
Like-named read-outs stand apart in the source and are kept apart here.

How the values were obtained:
[1] = target: GDP-bound KRAS wild-type protein (Homo sapiens, UniProt P01116); experiment: Binding to KRAS by surface plasmon resonance (SPR), dissociation constant KD
In short: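 GDP-loaded biotinylated Avi-tag RAS proteins (E. coli-expressed) captured on a Biotin CAPture chip at ~100–300 RU; single-cycle kinetics at 30°C, 100 µL/min, 75 s injections of rising compound concentrations. HBS pH 7.4 running buffer with 1 mM DTT, 10 mM MgCl2, 10 µM GDP, 4% DMSO. KD from 1:1 binding fit.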

[2] = target: HRAS wild-type protein (Homo sapiens, UniProt P01112); experiment: Binding to HRAS by surface plasmon resonance (SPR), KD and KD ratio to KRAS
Chain of HRAS wild-type protein (P01112 whole entry): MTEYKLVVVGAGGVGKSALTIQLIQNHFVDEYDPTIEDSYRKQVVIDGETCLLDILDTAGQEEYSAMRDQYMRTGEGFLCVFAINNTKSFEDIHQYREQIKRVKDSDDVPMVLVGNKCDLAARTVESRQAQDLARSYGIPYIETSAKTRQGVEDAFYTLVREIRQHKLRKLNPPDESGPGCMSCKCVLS
In short: (§1)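 Single-cycle kinetics on GDP-loaded biotin-Avi RAS captured to ~100–300 RU; 75 s ascending injections, 100 µL/min, 30°C. HBS pH 7.4 + 10 mM MgCl2/10 µM GDP/4% DMSO. 1:1 fit, KD.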

[3] = tested on: human lung cancer strain NCI-H441; experiment: NCI-H441 cell proliferation inhibitory activity (CellTiter-Glo, 4 days); format: cell-based; settings: read-out: NCl-H441 IC50
In short: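 Proliferation was scored by […] measured after the reagent was added to cultures kept at 37°C in 5% carbon dioxide.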

[4] = target: GDP-bound NRAS wild-type protein (Homo sapiens, UniProt P01111); experiment: Binding to NRAS by surface plasmon resonance (SPR), KD and KD ratio to KRAS
Chain of GDP-bound NRAS wild-type protein (P01111 whole entry): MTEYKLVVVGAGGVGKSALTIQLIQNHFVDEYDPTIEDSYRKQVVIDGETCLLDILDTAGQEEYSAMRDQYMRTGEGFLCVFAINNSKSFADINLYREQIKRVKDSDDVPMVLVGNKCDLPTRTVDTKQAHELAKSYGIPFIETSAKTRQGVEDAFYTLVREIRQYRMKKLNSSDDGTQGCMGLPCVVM
In short: as §1

[5] = Single Cycle Kinetics, 1:1 binding model
[6] = ratio of KD with respect to HRAS wild-type protein to KD with respect to KRAS
[7] = 50% proliferation inhibitory concentration, four days
[8] = ratio of KD with respect to GDP-bound NRAS wild-type protein to KD with respect to KRAS
[9] = ratio of KD for HRAS wild-type protein to KD for KRAS
[10] = ratio of KD for GDP-bound NRAS wild-type protein to KD for KRAS

Chain of GDP-bound KRAS wild-type protein (P01116 1-188 isoform P01116-2): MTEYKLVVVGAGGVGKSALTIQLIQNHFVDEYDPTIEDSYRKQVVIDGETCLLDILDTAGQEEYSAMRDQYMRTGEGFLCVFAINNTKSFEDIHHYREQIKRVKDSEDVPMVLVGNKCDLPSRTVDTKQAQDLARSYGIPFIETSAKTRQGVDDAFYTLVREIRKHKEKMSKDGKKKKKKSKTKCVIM

CCO[C@@H]1C[C@H]2C(=O)NC3(CCC3)C(=O)N(C)[C@@H](C3CCCC3)C(=O)N(C)[C@H](C(=O)N3CCOCC3)CC(=O)N(C)[C@@H](CC(C)C)C(=O)N[C@@H]([C@@H](C)CC)C(=O)N3CC[C@H]3C(=O)N(C)[C@H]3C[C@@H](C)[C@@H](C)CN(C3=O)[C@@H](Cc3ccc(C(F)(F)F)cc3)C(=O)N(C)CC(=O)N[C@@H](CCc3cc(F)c(C(F)(F)F)c(F)c3)C(=O)N2C1 [PP1355]
Kd [1, 5]: 0.16 nM
HRAS /KRAS [2, 6]: B (a compound having 3 or more and less than 10 is denoted as B)
IC50 [3, 7]: 10.2 nM
NRAS /KRAS [4, 8]: A (a compound having 10 or more and less than 20 is denoted as A)

C#CC[C@H]1C(=O)N[C@@H]([C@@H](C)CC)C(=O)N2CCC[C@H]2C(=O)N(C)[C@H]2C/C=C\CCN(C2=O)[C@@H](Cc2ccc(C)cc2)C(=O)N(C)CC(=O)N[C@@H](CCc2ccc(C(F)(F)F)c(Cl)c2)C(=O)N2C[C@H](OCC)C[C@H]2C(=O)N(C)C2(CCC2)C(=O)N(C)[C@@H](C2CCCC2)C(=O)N(C)[C@H](C(=O)N(C)C)CC(=O)N1C [PP3257]
Kd ([1]; Single Cycle Kinetics): 0.1 nM
HRAS /KRAS [2, 9]: B (a compound having 3 or more and less than 10 is denoted as B)
IC50 ([3]; NCI-H441 cells, 4 days): 2.2 nM
NRAS /KRAS [4, 10]: A (a compound having 10 or more and less than 20 is denoted as A)

CCCC[C@H]1C(=O)N[C@@H]([C@@H](C)CC)C(=O)N2CCC[C@H]2C(=O)N(C)[C@H]2C/C=C\CCN(C2=O)[C@@H](Cc2ccc(C)cc2)C(=O)N(C)CC(=O)N[C@@H](CCc2ccc(C(F)(F)F)c(OC)c2)C(=O)N2C[C@H](OCC)C[C@H]2C(=O)OC2(CCC2)C(=O)N(C)[C@@H](C2CCCC2)C(=O)N(C)[C@H](C(=O)N(C)C)CC(=O)N1C [PP3383]
Kd ([1]; Single Cycle Kinetics): 0.74 nM
HRAS /KRAS [2, 9]: A (a compound having 10 or more and less than 20 is denoted as A)
IC50 ([3]; NCI-H441 cells, 4 days): 17.5 nM
NRAS /KRAS [4, 10]: A (a compound having 10 or more and less than 20 is denoted as A)

CCC[C@H]1C(=O)N[C@@H](C2CCCC2)C(=O)N(C)CC(=O)N(C)[C@H]2C/C=C\CCN(C2=O)[C@@H](Cc2ccc(C)cc2)C(=O)N(C)CC(=O)N[C@@H](CCc2ccc(C(F)(F)F)c(OC)c2)C(=O)N2CC3(CC3)C[C@H]2C(=O)N(C)C2(CCC2)C(=O)N(C)[C@@H](C(CC)CC)C(=O)N(C)[C@H](C(=O)N(C)C)CC(=O)N1C [PP3316]
Kd ([1]; Single Cycle Kinetics): 0.17 nM
HRAS /KRAS [2, 9]: B (a compound having 3 or more and less than 10 is denoted as B)
IC50 ([3]; NCI-H441 cells, 4 days): 11.2 nM
NRAS /KRAS [4, 10]: A (a compound having 10 or more and less than 20 is denoted as A)

CC[C@H](C)[C@@H]1NC(=O)[C@H](COC)N(C)C(=O)C[C@@H](C(=O)N(C)CC)N(C)C(=O)[C@H](C2CCCC2)N(C)C(=O)C2(CC(C)(C)C2)NC(=O)[C@@H]2C[C@H](C)CN2C(=O)[C@H](CCc2ccc(C(F)(F)F)c(Cl)c2)NC(=O)CN(C)C(=O)[C@H](Cc2ccc(C)cc2)N2CC/C=C\C[C@@H](C2=O)N(C)C(=O)CN(C)C1=O [PP2506]
Kd ([1]; 1:1 binding model): 0.13 nM
HRAS /KRAS [2, 9]: A (a compound having 10 or more and less than 20 is denoted as A)
IC50 ([3]; NCI-H441 cells, 4 days): 10.6 nM
NRAS /KRAS [4, 10]: A (a compound having 10 or more and less than 20 is denoted as A)

CCO[C@@H]1C[C@H]2C(=O)NC3(CCC3)C(=O)N(C)[C@@H](C3CCCC3)C(=O)N(C)[C@H](C(=O)N(C)C)CC(=O)N(C)[C@@H](Cc3ccc(C#N)cc3)C(=O)N[C@@H]([C@@H](C)CC)C(=O)N(C)CC(=O)N(C)[C@H]3CCCCCN(C3=O)[C@@H](Cc3ccc(C(F)(F)F)cc3)C(=O)N(C)CC(=O)N[C@@H](CCc3cc(F)c(C(F)(F)F)c(F)c3)C(=O)N2C1 [PP1173]
Kd [1, 5]: 0.18 nM
HRAS /KRAS [2, 6]: B (a compound having 3 or more and less than 10 is denoted as B)
IC50 [3, 7]: 70.8 nM
NRAS /KRAS [4, 8]: B (a compound having 3 or more and less than 10 is denoted as B)

CCO[C@@H]1C[C@H]2C(=O)NC3(CC(C)(C)C3)C(=O)N(C)[C@@H](C(CC)CC)C(=O)N(C)[C@H](C(=O)N(C)C)CC(=O)N(C)[C@@H](C(C)C)C(=O)N[C@@H]([C@@H](C)CC)C(=O)N(C)CC(=O)N(C)[C@H]3C/C=C\CCN(C3=O)[C@@H](CC3CCC(F)(F)CC3)C(=O)N(C)CC(=O)N[C@@H](CCc3ccc(C(F)(F)F)c(Cl)c3)C(=O)N2C1 [PP2492]
Kd ([1]; 1:1 binding model): 2.4 nM
HRAS /KRAS [2, 9]: A (a compound having 10 or more and less than 20 is denoted as A)
IC50 ([3]; NCI-H441 cells, 4 days): 76.7 nM
NRAS /KRAS [4, 10]: AA (a compound having 20 or more is denoted as AA)

CCC[C@H]1C(=O)N[C@@H]([C@@H](C)CC)C(=O)N(C)CC(=O)N(C)[C@H]2C/C=C\CCN(C2=O)[C@@H](Cc2ccc(C)cc2)C(=O)N(C)CC(=O)N[C@@H](CCc2ccc(C(F)(F)F)c(Cl)c2)C(=O)N2CC3(CC3)C[C@H]2C(=O)NC2(CCC2)C(=O)N(C)[C@@H](C2CCCC2)C(=O)N(C)[C@H](C(=O)N(C)C)CC(=O)N1C [PP3442]
Kd ([1]; Single Cycle Kinetics): 0.083 nM
HRAS /KRAS [2, 9]: B (a compound having 3 or more and less than 10 is denoted as B)
IC50 ([3]; NCI-H441 cells, 4 days): 7.7 nM
NRAS /KRAS [4, 10]: A (a compound having 10 or more and less than 20 is denoted as A)

CCC(CC)[C@H]1C(=O)N(C)[C@H](C(=O)N(C)C)CC(=O)N(C)[C@@H](COC)C(=O)N[C@@H]([C@@H](C)CC)C(=O)N(C)CC(=O)N(C)[C@H]2C/C=C\CCN(C2=O)[C@@H](CC2CCCCC2)C(=O)N(C)CC(=O)N[C@@H](CCc2ccc(C(F)(F)F)c(OC)c2)C(=O)N2C[C@@H](C)C[C@H]2C(=O)NC2(CC(C)(C)C2)C(=O)N1C [PP2466]
Kd ([1]; 1:1 binding model): 3.9 nM
HRAS /KRAS [2, 9]: A (a compound having 10 or more and less than 20 is denoted as A)
IC50 ([3]; NCI-H441 cells, 4 days): 170 nM
NRAS /KRAS [4, 10]: A (a compound having 10 or more and less than 20 is denoted as A)

CCC(CC)[C@H]1C(=O)N(C)[C@H](C(=O)N(C)C)CC(=O)N(C)[C@@H](COC)C(=O)N[C@@H]([C@@H](C)CC)C(=O)N2CCC[C@H]2C(=O)N(C)[C@H]2C/C=C\CCN(C2=O)[C@@H](Cc2ccc(C(F)(F)F)cc2)C(=O)N(C)CC(=O)N[C@@H](CCc2ccc(Cl)c(Cl)c2)C(=O)N2C[C@H](OC3CCCC3)C[C@H]2C(=O)NC2(CC(C)(C)C2)C(=O)N1C [PP2651]
Kd ([1]; 1:1 binding model): 1.9 nM
HRAS /KRAS [2, 9]: A (a compound having 10 or more and less than 20 is denoted as A)
IC50 ([3]; NCI-H441 cells, 4 days): 147 nM
NRAS /KRAS [4, 10]: AA (a compound having 20 or more is denoted as AA)

CCCOC[C@H]1C(=O)N[C@@H]([C@@H](C)CC)C(=O)N2CCC[C@H]2C(=O)N(C)[C@H]2C/C=C\CCN(C2=O)[C@@H](CC2CCC(F)(F)CC2)C(=O)N(C)CC(=O)N[C@@H](CCc2ccc(C(F)(F)F)c(OC)c2)C(=O)N2C[C@@H](C)C[C@H]2C(=O)N(C)C2(CCC2)C(=O)N(C)[C@@H](C2CCCC2)C(=O)N(C)[C@H](C(=O)N(C)C)CC(=O)N1C [PP2381]
Kd ([1]; 1:1 binding model): 0.93 nM
HRAS /KRAS [2, 9]: A (a compound having 10 or more and less than 20 is denoted as A)
IC50 ([3]; NCI-H441 cells, 4 days): 3.2 nM
NRAS /KRAS [4, 10]: A (a compound having 10 or more and less than 20 is denoted as A)

CCCOC[C@H]1C(=O)N[C@@H]([C@@H](C)CC)C(=O)N2CCC[C@H]2C(=O)N(C)[C@H]2C/C=C\CCN(C2=O)[C@@H](Cc2ccc(C)cc2)C(=O)N(C)CC(=O)N[C@@H](CCc2cc(F)c(C(F)(F)F)c(F)c2)C(=O)N2C[C@H](C)C[C@H]2C(=O)NC2(CC(C)(C)C2)C(=O)N(C)[C@@H](C2CCCC2)C(=O)N(C)[C@H](C(=O)N(C)CC)CC(=O)N1C [PP2430]
Kd ([1]; 1:1 binding model): 1.4 nM
HRAS /KRAS [2, 9]: A (a compound having 10 or more and less than 20 is denoted as A)
IC50 ([3]; NCI-H441 cells, 4 days): 33.2 nM
NRAS /KRAS [4, 10]: AA (a compound having 20 or more is denoted as AA)

CC[C@H](C)[C@@H]1NC(=O)[C@H](COC)N(C)C(=O)C[C@@H](C(=O)N(C)C)N(C)C(=O)[C@H](C2CCCC2)N(C)C(=O)C2(CC(C)(C)C2)NC(=O)[C@@H]2C[C@H](C)CN2C(=O)[C@H](CCc2ccc(C(F)(F)F)c(Cl)c2)NC(=O)CN(C)C(=O)[C@H](Cc2ccc(C)cc2)N2CC/C=C\C[C@@H](C2=O)N(C)C(=O)CN(C)C1=O [PP2502]
Kd ([1]; 1:1 binding model): 0.065 nM
HRAS /KRAS [2, 9]: A (a compound having 10 or more and less than 20 is denoted as A)
IC50 ([3]; NCI-H441 cells, 4 days): 7.9 nM
NRAS /KRAS [4, 10]: A (a compound having 10 or more and less than 20 is denoted as A)

C#CC[C@H]1C(=O)N[C@@H]([C@@H](C)CC)C(=O)N(C)CC(=O)N(C)[C@H]2C/C=C\CCN(C2=O)[C@@H](Cc2ccc(C)cc2)C(=O)N(C)CC(=O)N[C@@H](CCc2ccc(C(F)(F)F)c(Cl)c2)C(=O)N2C[C@H](OCC)C[C@H]2C(=O)N(C)C2(CCC2)C(=O)N(C)[C@@H](C2CCCC2)C(=O)N(C)[C@H](C(=O)N(C)C)CC(=O)N1C [PP3240]
Kd ([1]; Single Cycle Kinetics): 0.024 nM
HRAS /KRAS [2, 9]: A (a compound having 10 or more and less than 20 is denoted as A)
IC50 ([3]; NCI-H441 cells, 4 days): 2.3 nM
NRAS /KRAS [4, 10]: A (a compound having 10 or more and less than 20 is denoted as A)

CCC[C@H]1C(=O)N[C@@H]([C@@H](C)CC)C(=O)N(C2CC2)CC(=O)N(C)[C@H]2C/C=C\CCN(C2=O)[C@@H](Cc2ccc(C(F)(F)F)cc2)C(=O)N(C)CC(=O)N[C@@H](CCc2cc(F)c(C(F)(F)F)c(F)c2)C(=O)N2C[C@H](OCC)C[C@H]2C(=O)NC2(CCCC2)C(=O)N(C)[C@@H](C2CCCC2)C(=O)N(C)[C@H](C(=O)N(C)C)CC(=O)N1C [PP3473]
Kd ([1]; Single Cycle Kinetics): 0.53 nM
HRAS /KRAS [2, 9]: B (a compound having 3 or more and less than 10 is denoted as B)
IC50 ([3]; NCI-H441 cells, 4 days): 13.5 nM
NRAS /KRAS [4, 10]: AA (a compound having 20 or more is denoted as AA)
